Source: patent US6335019B1, “Methods for treating sensitivity to protein allergen using peptides which include a T cell epitope recognized by a T cell receptor specific for the protein allergen” (Immulogic Pharmaceutical Corp., priority 1989, dated 2002)

What was measured:
[1] = system: ragweed pollen-specific T cells of ragweed allergic patients; assay: Secondary and tertiary T cell proliferation assays of a panel of ragweed allergic patients with synthetic peptides; format: cell-based, human; details: for Stimulation of ragweed allergic patient T cells by synthetic peptide (in words): in vitro proliferation assays; for NUMBER POSITIVE (patients with T cell response to peptide) / POSITIVE % (patients whose T cells are stimulated by peptide): positive = T cell proliferative response greater than 2-fold above culture medium control
Description: (§1) Peripheral blood mononuclear cells (PBMC) were purified from 60 ml of heparinized blood from ragweed-allergic patients. PBMC were subsequently treated as described below, although in individual cases, the length of time of cultivation with IL-2 and IL-4 and the specific ragweed proteins and peptides used for stimulation varied. As an example, ten ml of patient 222 PBMC at 10^6/ml were cultured at 37° C. for 7 days in the presence of 20 micrograms aqueous ragweed pollen extract/ml RPMI-1640 supplemented with 5% pooled human AB serum. Viable cells were purified by Ficoll-Hypaque centrifugation and cultured for three weeks at 5 units recombinant human IL-2/ml and 5 units recombinant human IL-4/ml. The resting T cells were then restimulated (secondary) with 20 micrograms aqueous ragweed pollen extract/ml at a density of 2×10^5 cells/ml in the presence of X-irradiated (3500 RADS) autologous PBMC (5×10^5/ml) for three days, purified by Ficoll-Hypaque centrifugation and grown in 5 units IL-2/ml and 5 units IL-4/ml for two weeks. For assay, 2×10^4 resting secondary T cells were restimulated (tertiary) in the presence of 5×10^4 X-irradiated (3500 RADS) autologous PBMC or 2×10^4 autologous Epstein-Barr virus-transformed B cells (20,000 RADS) with various concentrations of allergen or their fragments in a volume of 200 microliters in 96-well round bottom assay plates for 3 days. Each well then received 1 microCurie tritiated (methyl) thymidine for 16 hours. The counts incorporated were collected onto glass fiber filters and processed for liquid scintillation counting. […] Antigens used: IPC aqueous pollen extract (pollen), Hollister-Stier ragweed skin test extract (RWST), ALK cat epithelium skin test extract (CST), affinity 4B5/B7 antibody purified (dialyzed) Amb a I (B7), and chromatographically purified Amb a I and (Amb a I). Medium only control is shown as a line with no symbol. Alternatively, PBMC were sometimes carried only into a secondary assay (as outlined above for a tertiary assay) with 20 micrograms aqueous pollen extract 7 days, followed by culture in 5 units IL-2/ml and 5 units IL-4/ml for 2-3 weeks. […] Secondary and tertiary assays of a panel of ragweed allergic patients were performed using synthetic peptides derived from the sequences of various ragweed pollen proteins. […] Another four peptides (RAE15.6, RAE3.D, RAE28.1, RAE26.15) which are also derived from the sequence of the same three cDNA's could stimulate 35 to 58% of the patients' T cells. One peptide (RAE4) which is derived from the cDNA of IPC Clone 5 could also stimulate 25% of the patients' T cells. […] By this method it is possible to identify novel therapeutic and diagnostics entities for use in the treatment and the diagnosis of ragweed allergy.

[2] = system: human IgE (ragweed allergic patient sera); assay: SDS-PAGE Western blot (and ELISA) of ragweed allergic patient IgE binding to pollen, affinity purified and recombinant Amb a I / Amb a II; parameters: key to IgE binding, summarized Western blot data: −: no signal over background; +−: barely discernable over background; +: clearly positive; ++: strongly positive; +++: highly positive
Description: As represented in FIG. 1A, a selected monoclonal antibody (designated 4B5/B7) which recognizes an Amb a I preparation unsubjected to denaturing conditions was used to affinity purify from pollen extract a single protein, which is referred to as affinity purified Amb a I. This was carried out, using known techniques, by producing the desired monoclonal antibody, isolating it in large quantities from ascites and immobilizing it on Sepharose (Pharmacia). Aqueous pollen extract was passed over the monoclonal antibody-containing column and a protein species was eluted.
Furthermore, full-length and truncated cDNAs encoding several members of the Amb a I multigene family, as well as Amb a II, were cloned in-frame into the expression vector pTrc99 (Amann et al. Gene, 69:301-315, (1988)) and transformed into the JM109 host. Expression of recombinant Amb a I and Amb a II protein was induced by 1 mM isopropyl-β-D-thiogalactopyranoside, cells were harvested, lysozyme treated, sonicated and insoluble inclusion bodies recovered by a low speed centrifugation. Recombinant Amb a I and Amb a II protein present in the recovered pellet was solubilized in buffer containing 8M urea, 50 mM Tris HC1 pH8.0, 50 mM NaCl, 1 mM EDTA, 1 mM dithiothreitol, 1 mM phenylmethylsulfonyl fluoride. After solubilization, the crude urea lysate was dialyzed at 4° C. against PBS. […] This antigenic cross-reactivity is consistent with the observed sequence homology of the cDNAs (see FIG. 16).
Comparison of human IgE binding to recombinant Amb a I and Amb a II proteins with anti-peptide and monoclonal anti-Amb a I antibodies have provided data consistent with the conclusion that the N-terminal portion (historically referred to as the β-region) of Amb a IA includes the major IgE eptiope(s).
Affinity purified Amb a I was electrophoresed, Western transferred (Towbin et al., Proc. Natl. Acad. Sci. USA, 76:4350 (1979)) and probed with a variety of antibodies, including IgE from an allergic patient (FIG. 17). In pollen extract Amb a I is not only present as an intact 38-KD species, but also characterized by its component 26KD alpha chains and 12-KD beta chains which are formed by enzymatic cleavage. The intact 38-KD species and the alpha chain are clearly detected using rabbit anti-Amb a I, polyclonal affinity purified anti-RAE 16 and monoclonal anti-Amb a I JBIE3-4 (FIG. 17); RAE 16 peptide has the sequence RTDKDLLENGAIC derived from amino-acids […] of Amb a IB, FIG. 16). Affinity purified Amb a I (partial sequence presented in Table 1) as well as chromatographically purified Amb a II (partial sequence presented in Table 2) are bound on Western blots by these antibodies as well as by patient IgE (FIG. 17). The goat anti-Amb a I polyclonal antibody also binds multiple Amb a I and Amb a II species on a two dimensional Western blot of pollen extract (FIG. 18). The Western blot was performed as outlined below. […]

[3] = system: T cells from patients allergic to ragweed; assay: T cell proliferation of ragweed allergic patient T cells to ragweed proteins and recombinant lysates (tritiated thymidine); format: cell-based, human
Source text: T cells from patients allergic to ragweed, previously stimulated with a mixed ragweed pollen extract, can recognize and proliferate in response to pollen extract, ragweed skin test reagent (RWST), affinity purified Amb a I protein and crude bacterial lysates containing recombinant Amb a I gene products IA, IB and IC (Table 4). […] The use of crude bacterial lysates as antigens precludes a firm conclusion form the negative responses, since the relative levels of recombinant proteins in lysate have not been determined.
as §1

Molecule: LNQELVVNSDKTIDGRGVK [RAE 45.15]
- Stimulation of ragweed allergic patient T cells by synthetic peptide (in words) [1]: could not stimulate any
- NUMBER POSITIVE (patients with T cell response to peptide) [1]: 0
- POSITIVE % (patients whose T cells are stimulated by peptide) [1]: 0%

Molecule: GFFQVVNNNYDRWGTYA [RAE 26.15]
- NUMBER POSITIVE (patients with T cell response to peptide) [1]: 14
- POSITIVE % (patients whose T cells are stimulated by peptide) [1]: 58%

Molecule: ETRRSLKTSGAYNIIDGCWRGKAD [RAE 24.E]
- Stimulation of ragweed allergic patient T cells by synthetic peptide (in words) [1]: could not stimulate any
- NUMBER POSITIVE (patients with T cell response to peptide) [1]: 0
- POSITIVE % (patients whose T cells are stimulated by peptide) [1]: 0%

Molecule: FFPILGGITEVKDNDNSVDFC [RAE 4, synthetic peptide deduced from IPC Clone 5]
- Stimulation of ragweed allergic patient T cells by synthetic peptide (in words) [1]: stimulates
- Stimulation of ragweed allergic patient T cells by synthetic peptide (in words) ([1]; listed as RAE4): could be stimulated
- NUMBER POSITIVE (patients with T cell response to peptide) [1]: 7
- POSITIVE % (patients whose T cells are stimulated by peptide) [1]: 25%

Molecule: RTDKDLLENGAIC [RAE 16.6]
- Stimulation of ragweed allergic patient T cells by synthetic peptide (in words) [1]: could not stimulate any
- NUMBER POSITIVE (patients with T cell response to peptide) [1]: 0
- POSITIVE % (patients whose T cells are stimulated by peptide) [1]: 0%

Molecule: LENGAIFVASGVDPVLTPEQ [RAE 28.1]
- NUMBER POSITIVE (patients with T cell response to peptide) [1]: 17
- POSITIVE % (patients whose T cells are stimulated by peptide) [1]: 52%

Molecule: GKADWAENRC [RAE 3.D]
- NUMBER POSITIVE (patients with T cell response to peptide) [1]: 13
- POSITIVE % (patients whose T cells are stimulated by peptide) [1]: 37%

Molecule: YTVTSDKDDDVANC [RAE 15.6]
- NUMBER POSITIVE (patients with T cell response to peptide) [1]: 7
- POSITIVE % (patients whose T cells are stimulated by peptide) [1]: 35%

B1: Amb a IA(t): truncated recombinant Amb a IA, amino acid 70-398, E. coli expressed, used as crude bacterial lysate (protein)
chain: DCAQGFGKGTVGGKDGDIYTVTSELDDDVANPKEGTLRFGAAQNRPLWIIFERDMVIRLDKEMVVNSDKTIDGRGAKVEIINAGFTLNGVKNVIIHNINMHDVKVNPGGLIKSNDGPAAPRAGSDGDAISISGSSQIWIDHCSLSKSVDGLVDAKLGTTRLTVSNSLFTQHQFVLLFGAGDENIEDRGMLATVAFNTFTDNVDQRMPRCRHGFFQVVNNNYDKWGSYAIGGSASPTILSQGNRFCAPDERSKKNVLGRHGEAAAESMKWNWRTNKDVLENGAIFVASGVDPVLTPEQSAGMIPAEPGESALSLTSSAGVLSCQPGAPC
- Human IgE binding (in words) ([2]; Western blot (FIG. 17) and/or ELISA, ragweed allergic patient IgE): less well than the full-length Amb a IA
- IgE binding, summarized Western blot data ([2]; patient 151): −
- IgE binding, summarized Western blot data ([2]; patient 222): +−
- IgE binding, summarized Western blot data ([2]; patient 291): +
- IgE binding, summarized Western blot data ([2]; patient 295): +
- Stimulatory response of human T cells (proliferation compared to medium control) ([3]; patient 151 2° (secondary assay)): + (2-4 fold)
- Stimulatory response of human T cells (proliferation compared to medium control) ([3]; patient 222 2° (secondary assay)): ++ (4-10 fold)
- Stimulatory response of human T cells (proliferation compared to medium control) ([3]; patient 295 2° (secondary assay)): + (2-4 fold)
- Stimulatory response of human T cells (proliferation compared to medium control) ([3]; patient 296 2° (secondary assay)): +++ (>10 fold)
- Stimulatory response of human T cells (proliferation compared to medium control) ([3]; patient 314 2° (secondary assay)): +++ (>10 fold)
- Stimulatory response of human T cells (proliferation compared to medium control) ([3]; patient 316 2° (secondary assay)): +++ (>10 fold)
- Stimulatory response of human T cells (proliferation compared to medium control) ([3]; patient 320 2° (secondary assay)): ++ (4-10 fold)
- Stimulatory response of human T cells (proliferation compared to medium control) ([3]; patient 321 2° (secondary assay)): ++ (4-10 fold)
